The test system of experiment [1] is 5XFAD AD-Tg mice. The experiment can be described thus: Soluble Aβ (sAβ) ELISA of cerebral brain parenchyma in AD-Tg mice. The experiment is classed as in vivo, mouse. As for the experimental part: Inhibition of p300 in mice was performed similarly to previously described (Liu et al, 2013). p300i (C646; Tocris Bioscience) was dissolved in DMSO and injected i.p. daily (8.9 mg kg^−1 d^−1, i.p.) for 1 week. Vehicle-treated mice were similarly injected with DMSO.
Tissue homogenization and sAβ protein extraction was performed as previously described (Schmidt et al, 2005). Briefly, cerebral brain parenchyma was dissected and snap-frozen and kept at −80° C. until homogenization. Proteins were sequentially extracted from samples to obtain separate fractions containing proteins of differing solubility. Samples were homogenized in 10 volumes of ice-cold tissue homogenization buffer, containing 250 mM of sucrose, 20 mM of Tris base, 1 mM of ethylenediaminetetraacetic acid (EDTA), and 1 mM of ethylene glycol tetraacetic acid (pH 7.4), using a ground glass pestle in a Dounce homogenizer. After six strokes, the homogenate was mixed 1:1 with 0.4% diethylamine (DEA) in a 100-mM NaCl solution before an additional six strokes, and then centrifuged at 135,000 g at 4° C. for 45 min. The supernatant (DEA-soluble fraction containing extracellular and cytosolic proteins) was collected and neutralized with 10% of 0.5M of Tris-HCl (pH 6.8). Aβ1-40 and Aβ1-42 were individually measured by enzyme-linked immunosorbent assay (ELISA) from the soluble fraction using commercially available kits (Biolegend; #SIG-38954 and #SIG-38956, respectively) according to the manufacturer instructions.

The next experiment has as its target p300 (Mus musculus, UniProt B2RWS6). Conditions: Liu et al, 2013; cited from earlier work.
The subject of experiment [2] is 5XFAD AD-Tg mice. In words: Aβ plaque quantitation (immunohistochemistry) in 5XFAD AD-Tg mice. The experiment is classed as in vivo, mouse. As to the method:
Tissue processing and immunohistochemistry were performed on paraffin embedded sectioned mouse (6 μm thick) and human (10 μm thick) brains. For human ICAM-1 staining, primary mouse anti-ICAM (1:20 Abcam; ab2213) antibody was used. Slides were incubated for 10 min with 3% H2O2, and a secondary biotin-conjugated anti-mouse antibody was used, followed by biotin/avidin amplification with Vectastain ABC kit (Vector Laboratories). Subsequently, 3,3′-diaminobenzidine (DAB substrate) (Zytomed kit) was applied; slides were dehydrated and mounted with xylene-based mounting solution. For tissue stainings, mice were transcardially perfused with PBS prior to tissue excision and fixation. CP tissues were isolated under a dissecting microscope (Stemi DV4; Zeiss) from the lateral, third, and fourth ventricles of the brain. For whole mount CP staining, tissues were fixated with 2.5% paraformaldehyde (PFA) for 1 hour at 4° C., and subsequently transferred to PBS containing 0.05% sodium azide. Prior to staining, the dissected tissues were washed with PBS and blocked (20% horse serum, 0.3% Triton X-100, and PBS) for 1 h at room temperature. Whole mount staining with primary antibodies (in PBS containing 2% horse serum and 0.3% Triton X-100), or secondary antibodies, was performed for 1 h at room temperature. Each step was followed by three washes in PBS. The tissues were applied to slides, mounted with Immu-mount (9990402, from Thermo Scientific), and sealed with cover-slips. For staining of sectioned brains, two different tissue preparation protocols (paraffin embedded or microtomed free-floating sections) were applied, as previously described (Baruch et al, 2013; Kunis et al, 2013). […] Microscopic analysis, was performed using a fluorescence microscope (E800; Nikon) or laser-scanning confocal microscope (Carl Zeiss, Inc.). The fluorescence microscope was equipped with a digital camera (DXM 1200F; Nikon), and with either a 20×NA 0.50 or 40×NA 0.75 objective lens (Plan Fluor; Nikon). […] For quantification of staining intensity, total cell and background staining was measured using ImageJ software (NIH), and intensity of specific staining was calculated, as previously described (Burgess et al, 2010). […]
From each brain, 6 μm coronal slices were collected, and eight sections per mouse, from four different pre-determined depths throughout the region of interest (dentate gyrus or cerebral cortex) were immunostained. […]

For another experiment, the system named is aged mice (18 months). In words: p300 inhibition in aged mice, flow cytometry of spleen and CP. The class given is in vivo, mouse. Conditions: p300i 8.9 mg/kg/d i.p. for 1 week vs DMSO, examined a day after cessation. As for the experimental part:
Mice were transcardially perfused with PBS, and tissues were treated as previously described (Baruch et al, 2013). Brains were dissected and the different brain regions were removed under a dissecting microscope (Stemi DV4; Zeiss) in PBS, and tissues were dissociated using the gentleMACS™ dissociator (Miltenyi Biotec). Choroid plexus tissues were isolated from the lateral, third and fourth ventricles of the brain, incubated at 37° C. for 45 min in PBS (with Ca^2+/Mg^2+) containing 400 U/ml collagenase type IV (Worthington Biochemical Corporation), and then manually homogenized by pipetting. Spleens were mashed with the plunger of a syringe and treated with ACK (ammonium chloride potassium) lysing buffer to remove erythrocytes. In all cases, samples were stained according to the manufacturers' protocols. All samples were filtered through a 70 μm nylon mesh, and blocked with anti-Fc CD16/32 (1:100; BD Biosciences). For intracellular staining of IFN-γ, the cells were incubated with […] (10 ng/ml; Sigma-Aldrich) and ionomycin (250 ng/ml; Sigma-Aldrich) for 6 h, and Brefeldin-A (10 μg/ml; Sigma-Aldrich) was added for the last 4 h. Intracellular labeling of cytokines was done with BD Cytofix/Cytoperm™ Plus fixation/permeabilization kit (cat. no. 555028). […] Cells were analyzed on an LSRII cytometer (BD Biosciences) using FlowJo software. […]

The source of these data is US11492405B2, “Reducing systemic regulatory t cell levels or activity for treatment of disease and injury of the CNS” (Yeda Research and Development Co. Ltd, priority 2014, dated 2022).

Entries after “also recorded” stand apart in the source; their conditions may differ.

Sequence of p300 (B2RWS6 whole entry): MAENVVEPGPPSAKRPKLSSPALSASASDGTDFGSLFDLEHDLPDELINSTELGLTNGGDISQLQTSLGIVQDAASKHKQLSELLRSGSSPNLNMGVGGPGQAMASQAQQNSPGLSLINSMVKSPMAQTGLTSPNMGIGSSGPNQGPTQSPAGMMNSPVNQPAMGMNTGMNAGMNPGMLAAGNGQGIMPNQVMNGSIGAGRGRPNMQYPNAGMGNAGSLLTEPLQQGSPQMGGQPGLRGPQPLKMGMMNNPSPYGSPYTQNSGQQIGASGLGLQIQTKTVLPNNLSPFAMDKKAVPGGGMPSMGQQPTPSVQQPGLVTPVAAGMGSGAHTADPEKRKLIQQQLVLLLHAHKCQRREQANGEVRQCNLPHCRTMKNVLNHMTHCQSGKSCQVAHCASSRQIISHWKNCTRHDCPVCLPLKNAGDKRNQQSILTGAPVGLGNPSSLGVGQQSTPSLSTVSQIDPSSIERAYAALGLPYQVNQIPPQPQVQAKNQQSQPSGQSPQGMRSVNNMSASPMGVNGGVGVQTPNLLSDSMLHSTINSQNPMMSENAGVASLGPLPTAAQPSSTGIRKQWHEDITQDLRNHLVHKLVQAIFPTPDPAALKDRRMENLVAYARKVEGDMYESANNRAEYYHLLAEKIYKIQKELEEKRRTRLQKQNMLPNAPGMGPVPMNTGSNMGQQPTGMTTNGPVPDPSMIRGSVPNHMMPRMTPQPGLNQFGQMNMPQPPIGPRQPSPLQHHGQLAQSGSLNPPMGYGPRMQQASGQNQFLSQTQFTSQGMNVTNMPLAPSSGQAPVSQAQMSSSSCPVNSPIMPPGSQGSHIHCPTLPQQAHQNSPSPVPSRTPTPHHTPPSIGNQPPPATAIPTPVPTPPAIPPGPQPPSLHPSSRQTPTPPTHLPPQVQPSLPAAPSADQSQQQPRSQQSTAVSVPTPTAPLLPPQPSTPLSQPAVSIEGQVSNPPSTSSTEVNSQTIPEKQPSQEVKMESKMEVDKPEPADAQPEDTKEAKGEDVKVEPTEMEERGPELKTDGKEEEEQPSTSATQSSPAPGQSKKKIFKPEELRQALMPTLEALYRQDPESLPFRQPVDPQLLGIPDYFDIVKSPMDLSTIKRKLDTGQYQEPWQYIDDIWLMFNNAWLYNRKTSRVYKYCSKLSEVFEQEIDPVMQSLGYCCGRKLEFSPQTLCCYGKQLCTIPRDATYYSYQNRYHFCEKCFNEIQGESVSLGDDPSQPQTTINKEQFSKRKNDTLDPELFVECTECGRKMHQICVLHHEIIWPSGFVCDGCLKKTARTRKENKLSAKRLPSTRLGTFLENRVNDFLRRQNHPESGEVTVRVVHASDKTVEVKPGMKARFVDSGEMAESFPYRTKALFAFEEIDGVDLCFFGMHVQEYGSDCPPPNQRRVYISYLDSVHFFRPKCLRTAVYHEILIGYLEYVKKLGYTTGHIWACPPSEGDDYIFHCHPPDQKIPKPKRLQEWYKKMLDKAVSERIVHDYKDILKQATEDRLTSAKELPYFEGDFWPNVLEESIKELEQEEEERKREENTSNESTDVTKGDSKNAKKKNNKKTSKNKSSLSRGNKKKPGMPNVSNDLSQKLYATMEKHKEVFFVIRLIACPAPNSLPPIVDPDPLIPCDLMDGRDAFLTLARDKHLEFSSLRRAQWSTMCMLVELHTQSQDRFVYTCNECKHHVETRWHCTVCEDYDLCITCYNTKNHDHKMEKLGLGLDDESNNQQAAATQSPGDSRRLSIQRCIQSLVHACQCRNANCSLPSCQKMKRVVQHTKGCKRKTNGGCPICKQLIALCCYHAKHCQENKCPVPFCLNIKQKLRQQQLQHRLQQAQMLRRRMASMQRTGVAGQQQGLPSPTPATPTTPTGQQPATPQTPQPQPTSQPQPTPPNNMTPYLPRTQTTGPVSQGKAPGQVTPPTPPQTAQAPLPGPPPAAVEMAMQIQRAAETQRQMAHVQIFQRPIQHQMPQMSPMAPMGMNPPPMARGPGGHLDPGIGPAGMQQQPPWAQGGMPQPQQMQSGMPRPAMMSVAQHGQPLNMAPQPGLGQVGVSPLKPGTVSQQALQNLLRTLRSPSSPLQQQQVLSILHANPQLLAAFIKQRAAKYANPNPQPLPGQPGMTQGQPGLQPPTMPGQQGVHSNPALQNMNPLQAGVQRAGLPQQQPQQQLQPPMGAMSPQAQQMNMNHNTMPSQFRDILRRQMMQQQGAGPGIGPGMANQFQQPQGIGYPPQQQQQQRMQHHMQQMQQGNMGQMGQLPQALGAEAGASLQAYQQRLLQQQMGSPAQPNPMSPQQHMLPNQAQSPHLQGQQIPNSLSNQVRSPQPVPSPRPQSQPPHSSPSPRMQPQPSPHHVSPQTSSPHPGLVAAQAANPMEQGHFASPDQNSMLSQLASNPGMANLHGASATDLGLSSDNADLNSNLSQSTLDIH

For the molecule `CC1=NN(c2ccc(C(=O)O)cc2)C(=O)/C1=C\c1ccc(-c2cc(C)c(C)cc2[N+](=O)[O-])o1` [p300i, 4-(4-((5-(4,5-dimethyl-2-nitrophenyl)furan-2-yl)methylene)-3-methyl-5-oxo-4,5-dihydro-1H-pyrazol-1-yl)benzoic acid], the “cerebral sAβ (Aβ1-40/Aβ1-42) levels” value with 5XFAD AD-Tg mice [1] (one course of p300i) and in the experiment with 5XFAD AD-Tg mice [1] (two courses of p300i with interval of 1 month) was “effective in reducing cerebral sAβ” each time. In addition, the “effect on sAβ1-42” value in the experiment on 5XFAD AD-Tg mice [1] (repeated courses of p300i compared with one course) was “stronger”. The “effect on Treg suppressive activities” value on p300 is reported as “affect Treg suppressive activities while leaving protective T effector cell responses intact”. Also, the “cerebral Aβ plaque load” value with 5XFAD AD-Tg mice [2] (10-month old AD-Tg mice, p300i for 1 week, examined 3 weeks later) is given as “significant reduction”. The “reduction of cerebral plaque load” value was “evident even two months after a single course of treatment” in the experiment with 5XFAD AD-Tg mice [2] (single course of p300i, examined 2 months later) and “stronger” in the experiment with 5XFAD AD-Tg mice [2] (two courses of p300i with 1-month interval, compared with single course). The “IFN-γ-expressing cells in the CP” value in the experiment on aged mice (18 months) is “elevated levels; also recorded: elevation”. In the experiment on aged mice (18 months), the “IFN-γ-expressing cells in the spleen” value is given as “elevated levels; also recorded: elevation”.
